According to patent US9187435B2, “Bridged Spiro[2.4]heptane ester derivatives” (Actelion Pharmaceuticals Ltd., priority 2010, dated 2015):
Where a name gives a salt, the structure may show the parent alone.

Molecular target: T1, human ALX receptor (Homo sapiens, UniProt P25090)
T1 construct: expressed in transfected cells; host or cells: HEK293 (HEK293-hALXR-Gα16)
T1 sequence (P25090 1-351): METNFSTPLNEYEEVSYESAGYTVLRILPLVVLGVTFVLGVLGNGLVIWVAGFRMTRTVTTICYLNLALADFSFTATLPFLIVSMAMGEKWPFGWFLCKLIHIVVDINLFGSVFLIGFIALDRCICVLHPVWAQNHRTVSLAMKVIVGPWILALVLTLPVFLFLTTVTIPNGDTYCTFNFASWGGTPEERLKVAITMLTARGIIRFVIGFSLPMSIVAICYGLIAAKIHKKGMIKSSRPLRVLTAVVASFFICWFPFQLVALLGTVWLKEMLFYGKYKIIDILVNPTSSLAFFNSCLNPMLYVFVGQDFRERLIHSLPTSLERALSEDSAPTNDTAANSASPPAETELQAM
Test: Intracellular calcium measurements (FLIPR) in HEK293-hALXR-Gα16 cells, agonistic activity
Type: cell-based
Conditions: values normalized to WKYMVm 10 nM
Method: The ALX receptor and FPRL2 agonistic activities of the compounds of formula (I) are determined in accordance with the following experimental method.
Intracellular Calcium Measurements:
Cells expressing recombinant human ALX receptor and the G-protein Gα16 (HEK293-hALXR-Gα16) were grown to 80% confluency in Growing Medium (GM). Cells were detached from culture dishes with a cell dissociation buffer (Invitrogen, 13151-014), and collected by centrifugation at 1,000 rpm at rt for 5 min in Assay Buffer (AB) (equal parts of Hank's BSS (Gibco, 14065-049) and DMEM without Phenol Red (Gibco, 11880-028)). After 60 min incubation at 37° C. under 5% CO2 in AB supplemented with 1 μM Fluo-4 (AM) (Invitrogen, F14202), and 20 mM HEPES (Gibco, 15630-056), the cells were washed and resuspended in AB. They were then seeded onto 384-well FLIPR assay plates (Greiner, 781091) at 50,000 cells in 70 μl per well and sedimented by centrifugation at 1,000 rpm for 1 min. Stock solutions of test compounds were made up at a concentration of 10 mM in DMSO, and serially diluted in AB to concentrations required for activation dose response curves. WKYMVm (Phoenix Peptides) was used as a reference agonist. FLIPR384 or FLIPR Tetra instruments (Molecular Devices) were operated according to the manufacturer's standard instructions, adding 4 μl of test compound dissolved at 10 mM in DMSO and diluted prior to the experiment in assay buffer to obtain the desired final concentration. Changes in fluorescence were monitored before and after the addition of test compounds at lex=488 nm and lem=540 nm. Emission peak values above base level after compounds addition were exported after base line subtraction. Values were normalized to high-level control (WKYMVm compound, 10 nM final concentration) after subtraction of the base line value (AB addition).

Row | SMILES | EC50 [nM]
1 | O=C(OCCN1CCNCC1)[C@H]1[C@H](C(=O)NCc2ccc(Br)cc2F)[C@@H]2CC[C@H]1C21CC1 [Example 71, (1S,2R,3R,4R)-[2-(piperazin-1-yl)ethyl 2-((4-bromo-2-fluorobenzyl)carbamoyl)spiro[bicyclo[2.2.1]heptane-7,1′-cyclopropane]-3-carboxylate]dihydrochloride] | 162
2 | Cc1cc(CNC(=O)[C@H]2[C@H](C(=O)O[C@@H]3CCNC[C@H]3F)[C@H]3CC[C@@H]2C32CC2)on1 (relative stereo) [Example 46, (1S,2R,3R,4R)-[(trans-3-Fluoro-piperidin-4-yl) 2-(((3-methylisoxazol-5-yl)methyl)carbamoyl)spiro[bicyclo[2.2.1]heptane-7,1′-cyclopropane]-3-carboxylate]] | 9.7
3 | O=C(Nc1ccc(Br)nc1)C1C(C(=O)OCC2CCNCC2)C2CCC1C21CC1 [Example 1, (1S,2R,3R,4R)-[Piperidin-4-ylmethyl 2-((6-bromopyridin-3-yl)carbamoyl)spiro[bicyclo[2.2.1]heptane-7,1′-cyclopropane]-3-carboxylate]] | 8.1
4 | Cc1cc(CNC(=O)[C@H]2[C@H](C(=O)OCCC3(F)CCNCC3)[C@H]3CC[C@@H]2C32CC2)no1 [Example 58, (1S,2R,3R,4R)-[2-(4-Fluoro-piperidin-4-yl)ethyl 2-(((5-methylisoxazol-3-yl)methyl)carbamoyl)spiro[bicyclo[2.2.1]heptane-7,1′-cyclopropane]-3-carboxylate]] | 36.7
5 | Cc1cc(CNC(=O)[C@H]2[C@H](C(=O)OCCN(C)C)[C@H]3CC[C@@H]2C32CC2)no1 [Example 27, (1S,2R,3R,4R)-[1-Dimethylaminoeth-2-yl 2-(((5-methylisoxazol-3-yl)methyl)carbamoyl)spiro[bicyclo[2.2.1]heptane-7,1′-cyclopropane]-3-carboxylate]] | 585
6 | O=C(OCCOCCN1CCC(F)(F)C1)[C@H]1[C@H](C(=O)Nc2ccc(Br)nc2)[C@@H]2CC[C@H]1C21CC1 [Example 75, (1S,2R,3R,4R)-[2-(2-(3,3-Difluoropyrrolidin-1-yl)ethoxy)ethyl 2-((6-bromopyridin-3-yl)carbamoyl)spiro[bicyclo[2.2.1]heptane-7,1′-cyclopropane]-3-carboxylate]] | 403
7 | Cc1cc(CNC(=O)[C@H]2[C@H](C(=O)OCCC3CCNCC3)[C@H]3CC[C@@H]2C32CC2)no1 [Example 47, (1S,2R,3R,4R)-[2-(Piperidin-4-yl)ethyl 2-(((5-methylisoxazol-3-yl)methyl)carbamoyl)spiro[bicyclo[2.2.1]heptane-7,1′-cyclopropane]-3-carboxylate]] | 9.7
8 | CN1C(C)(C)CC(OC(=O)[C@H]2[C@H](C(=O)Nc3ccc(Br)nc3)[C@@H]3CC[C@H]2C32CC2)CC1(C)C [Example 8, (1S,2R,3R,4R)-[1,2,2,6,6-Pentamethylpiperidin-4-yl 2-((6-bromopyridin-3-yl)carbamoyl)spiro[bicyclo[2.2.1]heptane-7,1′-cyclopropane]-3-carboxylate]] | 753

Continued by falling EC50, values first:

Row | EC50 [nM] | SMILES
9 | 289 | O=C(OC1CNC1)[C@H]1[C@H](C(=O)Nc2ccc(Br)nc2)[C@@H]2CC[C@H]1C21CC1 [Example 24, (1S,2R,3R,4R)-[Azetidin-3-yl 2-((6-bromopyridin-3-yl)carbamoyl)spiro[bicyclo[2.2.1]heptane-7,1′-cyclopropane]-3-carboxylate]hydrochloride]
10 | 280 | O=C(O[C@H]1CCNC[C@H]1F)[C@H]1[C@H](C(=O)Nc2ccc(Br)nc2)[C@@H]2CC[C@H]1C21CC1 (relative stereo) [Example 74, (1S,2R,3R,4R)-[cis-3-Fluoro-piperidin-4-yl 2-((6-bromopyridin-3-yl)carbamoyl)spiro[bicyclo[2.2.1]heptane-7,1′-cyclopropane]-3-carboxylate]]
11 | 157 | O=C(OC[C@@H]1CCNC[C@H]1F)[C@H]1[C@H](C(=O)Nc2ccc(Br)nc2)[C@@H]2CC[C@H]1C21CC1 (relative stereo) [Example 70, (1S,2R,3R,4R)-[(trans-3-Fluoro-piperidin-4-yl)methyl 2-((6-bromopyridin-3-yl)carbamoyl)spiro[bicyclo[2.2.1]heptane-7,1′-cyclopropane]-3-carboxylate]]
12 | 135 | NC(=O)CCOC(=O)[C@H]1[C@H](C(=O)Nc2ccc(Br)nc2)[C@@H]2CC[C@H]1C21CC1 [Example 68, (1S,2R,3R,4R)-[(3-Amino-3-oxopropyl) 2-((6-bromopyridin-3-yl)carbamoyl)spiro[bicyclo[2.2.1]heptane-7,1′-cyclopropane]-3-carboxylate]]
13 | 118 | Cc1cc(CNC(=O)[C@H]2[C@H](C(=O)OCC[C@@H]3CCCCN3)[C@H]3CC[C@@H]2C32CC2)no1 [Example 20, (1S,2R,3R,4R)-[(S)-2-(Piperidin-2-yl)ethyl 2-(((5-methylisoxazol-3-yl)methyl)carbamoyl)spiro[bicyclo[2.2.1]heptane-7,1′-cyclopropane]-3-carboxylate]hydrochloride]
14 | 53.7 | Cc1cc(CNC(=O)[C@H]2[C@H](C(=O)OC3CCCNC3)[C@H]3CC[C@@H]2C32CC2)no1 (stereo partly drawn) [Example 16, (1S,2R,3R,4R)-[Piperidin-3-yl 2-(((5-methylisoxazol-3-yl)methyl)carbamoyl)spiro[bicyclo[2.2.1]heptane-7,1′-cyclopropane]-3-carboxylate]hydrochloride]
15 | 43.4 | O=C(OC1CCNCC1)[C@H]1[C@H](C(=O)NCc2ccc(Br)cc2F)[C@@H]2CC[C@H]1C21CC1 [Example 60, (1S,2R,3R,4R)-[Piperidin-4-yl 2-((4-bromo-2-fluorobenzyl)carbamoyl)spiro[bicyclo[2.2.1]heptane-7,1′-cyclopropane]-3-carboxylate]]
16 | 41.4 | Cc1cc(CNC(=O)[C@H]2[C@H](C(=O)OCC3(F)CCNCC3)[C@H]3CC[C@@H]2C32CC2)no1 [Example 59, (1S,2R,3R,4R)-[(4-Fluoro-piperidin-4-yl)methyl 2-(((5-methylisoxazol-3-yl)methyl)carbamoyl)spiro[bicyclo[2.2.1]heptane-7,1′-cyclopropane]-3-carboxylate]]
17 | 17.9 | O=C(O[C@@H]1CCNC1)[C@H]1[C@H](C(=O)Nc2ccc(Br)nc2)[C@@H]2CC[C@H]1C21CC1 [Example 13, (1S,2R,3R,4R)-[(R)-Pyrrolidin-3-yl 2-((6-bromopyridin-3-yl)carbamoyl)spiro[bicyclo[2.2.1]heptane-7,1′-cyclopropane]-3-carboxylate]hydrochloride]
18 | 15.5 | O=C(OCC1CCCNC1)[C@H]1[C@H](C(=O)Nc2ccc(Br)nc2)[C@@H]2CC[C@H]1C21CC1 (stereo partly drawn) [Example 12, (1S,2R,3R,4R)-[Piperidin-3-ylmethyl 2-((6-bromopyridin-3-yl)carbamoyl)spiro[bicyclo[2.2.1]heptane-7,1′-cyclopropane]-3-carboxylate]hydrochloride]
19 | 2.9 | O=C(Nc1ccc(Br)cc1)C1C(C(=O)OCC2CCNCC2)C2C=CC1C21CC1 [Example 35, (1R,4S,5R,6R)-[Piperidin-4-ylmethyl 5-((4-bromophenyl)carbamoyl)spiro[bicyclo[2.2.1]hept[2]ene-7,1′-cyclopropane]-6-carboxylate]]
20 | 2.5 | O=C(OC1CCCNC1)[C@H]1[C@H](C(=O)Nc2ccc(Br)nc2)[C@@H]2CC[C@H]1C21CC1 (stereo partly drawn) [Example 9, (1S,2R,3R,4R)-[Piperidin-3-yl 2-((6-bromopyridin-3-yl)carbamoyl)spiro[bicyclo[2.2.1]heptane-7,1′-cyclopropane]-3-carboxylate]hydrochloride]
